From patent US12428406B2 (PMV Pharmaceuticals, Inc., priority 2019, dated 2025)

molecular target: T1, p53 Y220C (Homo sapiens, UniProt P04637, Y220C); assay: In vitro DNA binding activity assay (HTRF / TR-FRET): stabilization of p53 Y220C and increase of its DNA binding activity; format: biochemical; conditions: recombinant His-tagged p53 Y220C DNA binding domain (aa 94-312), biotin-labeled consensus DNA, incubated at 27° C. or 29° C. for 60 min
T1 construct: The recombinant protein was a truncation mutant containing only amino acids 94-312 of p53; made in house; host or cells: E. coli
Procedure, shortened: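 Homogeneous time-resolved fluorescence with E. coli-derived p53 Y220C and biotinylated consensus DNA. Room-temperature incubations of 15 and 20 min precede reading. SC150 denotes the compound concentration required for 50% increased DNA binding.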

T1 sequence (P04637 94-312, change not shown): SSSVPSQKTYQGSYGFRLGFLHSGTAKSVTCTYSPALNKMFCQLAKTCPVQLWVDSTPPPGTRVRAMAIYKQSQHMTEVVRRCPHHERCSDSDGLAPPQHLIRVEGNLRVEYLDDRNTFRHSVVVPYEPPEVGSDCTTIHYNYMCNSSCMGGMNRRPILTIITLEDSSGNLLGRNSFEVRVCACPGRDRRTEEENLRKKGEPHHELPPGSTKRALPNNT

SMILES | SC150 (concentration of the compound required to increase the DNA binding activity by 50%)
COc1cc(S(C)(=O)=O)ccc1NCC#Cc1cc2c(N[C@@H]3CCN4CCC[C@H]4C3)cccc2n1CC(F)(F)F [Compound 764A, N-[(7R,8aS)-octahydroindolizin-7-yl]-2-{3-[(4-methanesulfonyl-2-methoxyphfenyl)amino]prop-1-yn-1-yl}-1-(2,2,2-trifluoroethyl)-1H-indol-4-amine] | + (+ = 0 μM ≤ SC150 < 0.05 μM)
COc1cc(S(C)(=O)=O)ccc1NCC#Cc1cc2c(N[C@@H]3CCN4CCC[C@@H]4C3)cccc2n1CC(F)(F)F [Compound 765A, N-[(7R,8aR)-octahydroindolizin-7-yl]-2-{3-[(4-methanesulfonyl-2-methoxyphenyl)amino]prop-1-yn-1-yl}-1-(2,2,2-trifluoroethyl)-1H-indol-4-amine] | + (+ = 0 μM ≤ SC150 < 0.05 μM)
COc1cc(S(C)(=O)=O)ccc1NCC#Cc1cc2c(N[C@H]3CCN(C)C[C@@H]3F)cccc2n1CC(F)(F)F [Compound 771A] | + (+ = 0 μM ≤ SC150 < 0.05 μM)
COc1cc(S(C)(=O)=O)ccc1NCC#Cc1cc2c(N[C@@H]3CCN(C)C[C@@H]3F)cccc2n1CC(F)(F)F [Compound 772A, N-[(3S,4R)-3-fluoro-1-methylpiperidin-4-yl]-2-{3-[(4-methanesulfonyl-2-methoxyphenyl)amino]prop-1-yn-1-yl}-1-(2,2,2-trifluoroethyl)-1H-indol-4-amine] | + (+ = 0 μM ≤ SC150 < 0.05 μM)
COc1cc(C(=O)O)ccc1NCC#Cc1cc2c(N[C@H]3CCN(C)C[C@H]3F)cccc2n1CC(F)(F)F [Compound 780A, 4-{[3-(4-{[(3R,4S)-3-fluoro-1-methylpiperidin-4-yl]amino}-1-(2,2,2-trifluoroethyl)-1H-indol-2-yl)prop-2-yn-1-yl]amino}-3-methoxybenzoic acid] | + (+ = 0 μM ≤ SC150 < 0.05 μM)
COc1cc(C(=O)O)ccc1NCC#Cc1cc2c(N[C@@H]3CCN(C)C[C@@H]3F)cccc2n1CC(F)(F)F [Compound 781A, 4-{[3-(4-{[(3S,4R)-3-fluoro-1-methylpiperidin-4-yl]amino}-1-(2,2,2-trifluoroethyl)-1H-indol-2-yl)prop-2-yn-1-yl]amino}-3-methoxybenzoic acid] | + (+ = 0 μM ≤ SC150 < 0.05 μM)
COc1cc(C(=O)O)ccc1NCC#Cc1cc2c(N[C@@H]3CCN(C)C[C@H]3F)cccc2n1CC(F)(F)F [Compound 788A, 4-{[3-(4-{[(3R,4R)-3-fluoro-1-methylpiperidin-4-yl]amino}-1-(2,2,2-trifluoroethyl)-1H-indol-2-yl)prop-2-yn-1-yl]amino}-3-methoxybenzoic acid] | + (+ = 0 μM ≤ SC150 < 0.05 μM)
COc1cc(C(=O)O)ccc1NCC#Cc1cc2c(N[C@H]3CCN(C)C[C@@H]3F)cccc2n1CC(F)(F)F [Compound 789A, 4-{[3-(4-{[(3S,4S)-3-fluoro-1-methylpiperidin-4-yl]amino}-1-(2,2,2-trifluoroethyl)-1H-indol-2-yl)prop-2-yn-1-yl]amino}-3-methoxybenzoic acid] | ++ (++ = 0.05 μM ≤ SC150 < 0.1 μM)
COc1cc(S(N)(=O)=O)ccc1NCC#Cc1cc2c(N[C@H]3CCN(C)C[C@H]3F)cccc2n1CC(F)(F)F [Compound 790A, 4-{[3-(4-{[(3R,4S)-3-fluoro-1-methylpiperidin-4-yl]amino}-1-(2,2,2-trifluoroethyl)-1H-indol-2-yl)prop-2-yn-1-yl]amino}-3-methoxybenzene-1-sulfonamide] | + (+ = 0 μM ≤ SC150 < 0.05 μM)
COc1cc(S(N)(=O)=O)ccc1NCC#Cc1cc2c(N[C@@H]3CCN(C)C[C@@H]3F)cccc2n1CC(F)(F)F [Compound 791A, 4-{[3-(4-{[(3S,4R)-3-fluoro-1-methylpiperidin-4-yl]amino}-1-(2,2,2-trifluoroethyl)-1H-indol-2-yl)prop-2-yn-1-yl]amino}-3-methoxybenzene-1-sulfonamide] | + (+ = 0 μM ≤ SC150 < 0.05 μM)
COc1cc(C(N)=O)ccc1NCC#Cc1cc2c(N[C@@H]3CCN(C)C[C@@H]3F)cccc2n1CC(F)(F)F [Compound 800A, 4-{[3-(4-{[(3S,4R)-3-fluoro-1-methylpiperidin-4-yl]amino}-1-(2,2,2-trifluoroethyl)-1H-indol-2-yl)prop-2-yn-1-yl]amino}-3-methoxybenzamide] | + (+ = 0 μM ≤ SC150 < 0.05 μM)
COc1cc(C(N)=O)ccc1NCC#Cc1cc2c(N[C@H]3CCN(C)C[C@H]3F)cccc2n1CC(F)(F)F [Compound 801A, 4-{[3-(4-{[(3R,4S)-3-fluoro-1-methylpiperidin-4-yl]amino}-1-(2,2,2-trifluoroethyl)-1H-indol-2-yl)prop-2-yn-1-yl]amino}-3-methoxybenzamide] | + (+ = 0 μM ≤ SC150 < 0.05 μM)
COc1cc(S(C)(=O)=O)ccc1NCC#Cc1cc2c(N[C@@H]3CCN(C(C)C)C[C@@H]3F)cccc2n1CC(F)(F)F [Compound 802A] | + (+ = 0 μM ≤ SC150 < 0.05 μM)
COc1cc(S(C)(=O)=O)ccc1NCC#Cc1cc2c(N[C@H]3CCN(C(C)C)C[C@H]3F)cccc2n1CC(F)(F)F [Compound 803A] | + (+ = 0 μM ≤ SC150 < 0.05 μM)

More lines, now with the values ahead:

SC150 (concentration of the compound required to increase the DNA binding activity by 50%) | SMILES
+ (+ = 0 μM ≤ SC150 < 0.05 μM) | CNC(=O)c1ccc(NCC#Cc2cc3c(N[C@@H]4CCN(C)C[C@@H]4F)cccc3n2CC(F)(F)F)c(OC)c1 [Compound 804A, 4-{[3-(4-{[(3S,4R)-3-fluoro-1-methylpiperidin-4-yl]amino}-1-(2,2,2-trifluoroethyl)-1H-indol-2-yl)prop-2-yn-1-yl]amino}-3-methoxy-N-methylbenzamide]
+ (+ = 0 μM ≤ SC150 < 0.05 μM) | CNC(=O)c1ccc(NCC#Cc2cc3c(N[C@H]4CCN(C)C[C@H]4F)cccc3n2CC(F)(F)F)c(OC)c1 [Compound 805A, 4-{[3-(4-{[(3R,4S)-3-fluoro-1-methylpiperidin-4-yl]amino}-1-(2,2,2-trifluoroethyl)-1H-indol-2-yl)prop-2-yn-1-yl]amino}-3-methoxy-N-methylbenzamide]
+ (+ = 0 μM ≤ SC150 < 0.05 μM) | COc1cc(C(=O)NC(C)C)ccc1NCC#Cc1cc2c(N[C@@H]3CCN(C)C[C@@H]3F)cccc2n1CC(F)(F)F [Compound 808A, 4-{[3-(4-{[(3S,4R)-3-fluoro-1-methylpiperidin-4-yl]amino}-1-(2,2,2-trifluoroethyl)-1H-indol-2-yl)prop-2-yn-1-yl]amino}-3-methoxy-N-(propan-2-yl)benzamide]
+ (+ = 0 μM ≤ SC150 < 0.05 μM) | COc1cc(C(=O)O)ccc1NCC#Cc1cc2c(N[C@@H]3CCN(C(C)C)C[C@@H]3F)cccc2n1CC(F)(F)F [Compound 809A, 4-{[3-(4-{[(3S,4R)-3-fluoro-1-(propan-2-yl)piperidin-4-yl]amino}-1-(2,2,2-trifluoroethyl)-1H-indol-2-yl)prop-2-yn-1-yl]amino}-3-methoxybenzoic acid]
+ (+ = 0 μM ≤ SC150 < 0.05 μM) | COc1cc(C(=O)O)ccc1NCC#Cc1cc2c(N[C@H]3CCN(C(C)C)C[C@H]3F)cccc2n1CC(F)(F)F [Compound 810A, 4-{[3-(4-{[(3R,4S)-3-fluoro-1-(propan-2-yl)piperidin-4-yl]amino}-1-(2,2,2-trifluoroethyl)-1H-indol-2-yl)prop-2-yn-1-yl]amino}-3-methoxybenzoic acid]
+ (+ = 0 μM ≤ SC150 < 0.05 μM) | CCN1CC[C@@H](Nc2cccc3c2cc(C#CCNc2ccc(S(C)(=O)=O)cc2OC)n3CC(F)(F)F)[C@@H](F)C1 [Compound 812A]
+ (+ = 0 μM ≤ SC150 < 0.05 μM) | CCN1CC[C@H](Nc2cccc3c2cc(C#CCNc2ccc(S(C)(=O)=O)cc2OC)n3CC(F)(F)F)[C@H](F)C1 [Compound 813A]
+ (+ = 0 μM ≤ SC150 < 0.05 μM) | CCOC(=O)c1ccc(NCC#Cc2cc3c(N[C@@H]4CCN(C(C)C)C[C@@H]4F)cccc3n2CC(F)(F)F)c(OC)c1 [Compound 821A]
+ (+ = 0 μM ≤ SC150 < 0.05 μM) | CCOC(=O)c1ccc(NCC#Cc2cc3c(N[C@@H]4CCN(CC)C[C@@H]4F)cccc3n2CC(F)(F)F)c(OC)c1 [Compound 823A]
+ (+ = 0 μM ≤ SC150 < 0.05 μM) | CCOC(=O)c1ccc(NCC#Cc2cc3c(N[C@H]4CCN(CC)C[C@H]4F)cccc3n2CC(F)(F)F)c(OC)c1 [Compound 824A]
+ (+ = 0 μM ≤ SC150 < 0.05 μM) | CCOC(=O)c1ccc(NCC#Cc2cc3c(N[C@H]4CCN(C(C)C)C[C@H]4F)cccc3n2CC(F)(F)F)c(OC)c1 [Compound 825A]
+ (+ = 0 μM ≤ SC150 < 0.05 μM) | CNC(=O)c1cc(OC)c(NCC#Cc2cc3c(N[C@@H]4CCN(C)C[C@@H]4F)cccc3n2CC(F)(F)F)cc1F [Compound 826A, 2-fluoro-4-{[3-(4-{[(3S,4R)-3-fluoro-1-methylpiperidin-4-yl]amino}-1-(2,2,2-trifluoroethyl)-1H-indol-2-yl)prop-2-yn-1-yl]amino}-5-methoxy-N-methylbenzamide]
+ (+ = 0 μM ≤ SC150 < 0.05 μM) | CNC(=O)c1cc(OC)c(NCC#Cc2cc3c(N[C@H]4CCN(C)C[C@H]4F)cccc3n2CC(F)(F)F)cc1F [Compound 827A, 2-fluoro-4-{[3-(4-{[(3R,4S)-3-fluoro-1-methylpiperidin-4-yl]amino}-1-(2,2,2-trifluoroethyl)-1H-indol-2-yl)prop-2-yn-1-yl]amino}-5-methoxy-N-methylbenzamide]
